Measurements: patent publication US20230233569A1 (Revolution Medicines, Inc., priority 2020, published 2023)

Key:
KRAS Q61H = KRAS Q61H (Homo sapiens, UniProt P01116+P62937, Q61H); experiment: Disruption of BRAF RBD interaction with Ras (FRET / MOA assay, with Cyclophilin A); assay type: biochemical; conditions: KRAS Q61H; read-out: KRAS Q61H FRET data IC50
Procedure, shortened: (§1)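 IC50 reflects compound-driven Ras:Cyclophilin A ternary complex displacing BRAF RBD, read as lowered TR-FRET ratio relative to DMSO after Eu anti-His (10 nM) and APC anti-GST (50 nM) detection for 1.5 h. Prior incubation 3 h, 25° C, with 12.5 nM GMPPNP-loaded Ras, 50 nM BRAF RBD, 25 μM Cyclophilin A; top compound 30 μM.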

NRAS WT = NRAS WT (Homo sapiens, UniProt P01111+P62937); experiment: as above; assay type: biochemical; conditions: NRAS WT; read-out: NRAS WT FRET data IC50
Sequence of NRAS WT (P01111 whole entry): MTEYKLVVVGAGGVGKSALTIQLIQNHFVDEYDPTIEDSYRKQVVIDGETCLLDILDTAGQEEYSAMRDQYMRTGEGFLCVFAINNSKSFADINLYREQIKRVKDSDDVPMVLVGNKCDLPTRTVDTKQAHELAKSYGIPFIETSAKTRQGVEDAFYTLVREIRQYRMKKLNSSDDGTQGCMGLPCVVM
Sequence of NRAS WT (P62937 whole entry): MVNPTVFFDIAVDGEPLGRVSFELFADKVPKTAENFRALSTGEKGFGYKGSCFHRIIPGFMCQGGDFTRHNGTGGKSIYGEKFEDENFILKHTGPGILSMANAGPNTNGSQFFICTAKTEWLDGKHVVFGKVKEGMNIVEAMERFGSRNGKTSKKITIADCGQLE
Procedure, shortened: as §1

NRAS Q61R = NRAS Q61R (Homo sapiens, UniProt P01111+P62937, Q61R); experiment: as above; assay type: biochemical; conditions: NRAS Q61R; read-out: NRAS Q61R FRET data IC50
Sequence of NRAS Q61R (P01111 whole entry Q61R): as the sequence (P01111 whole entry) above, with Q61R counted along it
Sequence of NRAS Q61R (P62937 whole entry): as the sequence (P62937 whole entry) above
Procedure, shortened: as §1

NRAS Q61K = NRAS Q61K (Homo sapiens, UniProt P01111+P62937, Q61K); experiment: as above; assay type: biochemical; conditions: NRAS Q61K; read-out: NRAS Q61K FRET data IC50
Sequence of NRAS Q61K (P01111 whole entry Q61K): as the sequence (P01111 whole entry) above, with Q61K counted along it
Sequence of NRAS Q61K (P62937 whole entry): as the sequence (P62937 whole entry) above
Procedure, shortened: as §1

KRAS G13D = KRAS G13D (Homo sapiens, UniProt P01116+P62937, G13D); experiment: as above; assay type: biochemical; conditions: KRAS G13D; read-out: KRAS G13D FRET data IC50
Sequence of KRAS G13D (P01116 1-169 isoform P01116-2 G13D limits assumed): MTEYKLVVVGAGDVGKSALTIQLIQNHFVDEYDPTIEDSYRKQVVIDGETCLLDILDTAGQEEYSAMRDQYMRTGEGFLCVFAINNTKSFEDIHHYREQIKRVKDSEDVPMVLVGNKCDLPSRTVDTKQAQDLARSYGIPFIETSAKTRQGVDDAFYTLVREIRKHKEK
Sequence of KRAS G13D (P62937 whole entry): as the sequence (P62937 whole entry) above
Procedure, shortened: (§2)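 Measured via TR-FRET after 3 h at 25 °C with compound (30 μM top, threefold serial steps, ten concentrations) plus K-Ras, Cyclophilin A and BRAF RBD, followed by 1.5 h with anti-His europium (10 nM) and anti-GST allophycocyanin (50 nM). Signal loss versus DMSO gave IC50.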

NRAS G12C = NRAS G12C (Homo sapiens, UniProt P01111+P62937, G12C); experiment: as above; assay type: biochemical; conditions: NRAS G12C; read-out: NRAS G12C FRET data IC50
Sequence of NRAS G12C (P01111 whole entry G12C): as the sequence (P01111 whole entry) above, with G12C counted along it
Sequence of NRAS G12C (P62937 whole entry): as the sequence (P62937 whole entry) above

KRAS G12D = KRAS G12D (Homo sapiens, UniProt P01116+P62937, G12D); experiment: as above; assay type: biochemical; conditions: read-out: KRAS G12D FRET data, IC50
Sequence of KRAS G12D (P01116 1-169 isoform P01116-2 G12D limits assumed): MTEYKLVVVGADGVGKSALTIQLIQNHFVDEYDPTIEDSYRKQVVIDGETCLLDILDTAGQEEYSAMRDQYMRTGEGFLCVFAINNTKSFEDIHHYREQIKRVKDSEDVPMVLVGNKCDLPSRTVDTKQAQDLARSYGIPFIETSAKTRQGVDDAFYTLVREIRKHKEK
Sequence of KRAS G12D (P62937 whole entry): as the sequence (P62937 whole entry) above
Procedure, shortened: as §2

KRAS G12C = KRAS G12C (Homo sapiens, UniProt P01116+P62937, G12C); experiment: as above; assay type: biochemical; conditions: read-out: KRAS G12C FRET data, IC50
Sequence of KRAS G12C (P01116 1-169 isoform P01116-2 G12C): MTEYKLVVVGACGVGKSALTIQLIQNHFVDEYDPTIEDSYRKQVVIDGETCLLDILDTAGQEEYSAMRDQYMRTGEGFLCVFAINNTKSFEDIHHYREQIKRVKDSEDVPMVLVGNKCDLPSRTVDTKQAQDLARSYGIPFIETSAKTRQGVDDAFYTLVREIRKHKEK
Sequence of KRAS G12C (P62937 whole entry): as the sequence (P62937 whole entry) above
Procedure, shortened: as §2

KRAS G12S = KRAS G12S (Homo sapiens, UniProt P01116+P62937, G12S); experiment: as above; assay type: biochemical; conditions: read-out: KRAS G12S FRET data, IC50
Sequence of KRAS G12S (P01116 1-169 isoform P01116-2 G12S limits assumed): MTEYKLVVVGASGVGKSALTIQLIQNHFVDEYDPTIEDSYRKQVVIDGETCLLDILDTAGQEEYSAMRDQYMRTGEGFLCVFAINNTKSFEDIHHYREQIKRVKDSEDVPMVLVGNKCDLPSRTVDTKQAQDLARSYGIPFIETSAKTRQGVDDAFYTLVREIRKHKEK
Sequence of KRAS G12S (P62937 whole entry): as the sequence (P62937 whole entry) above
Procedure, shortened: as §2

KRAS WT = KRAS WT (Homo sapiens, UniProt P01116+P62937); experiment: as above; assay type: biochemical; conditions: KRAS WT; read-out: KRAS WT FRET data IC50
Sequence of KRAS WT (P01116 1-169 isoform P01116-2 limits assumed): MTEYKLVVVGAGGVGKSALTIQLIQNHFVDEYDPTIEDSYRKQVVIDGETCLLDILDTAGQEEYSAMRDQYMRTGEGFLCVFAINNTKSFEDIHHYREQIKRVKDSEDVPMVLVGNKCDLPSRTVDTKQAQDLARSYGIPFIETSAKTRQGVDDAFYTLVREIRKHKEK
Sequence of KRAS WT (P62937 whole entry): as the sequence (P62937 whole entry) above
Procedure, shortened: as §2

KRAS G13C = KRAS G13C (Homo sapiens, UniProt P01116+P62937, G13C); experiment: as above; assay type: biochemical; conditions: read-out: KRAS G13C FRET data, IC50
Sequence of KRAS G13C (P01116 1-169 isoform P01116-2 G13C): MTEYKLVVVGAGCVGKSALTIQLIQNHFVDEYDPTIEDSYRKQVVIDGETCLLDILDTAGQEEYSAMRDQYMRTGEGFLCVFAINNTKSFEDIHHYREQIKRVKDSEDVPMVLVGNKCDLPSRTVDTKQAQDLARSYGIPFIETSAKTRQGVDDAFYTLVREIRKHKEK
Sequence of KRAS G13C (P62937 whole entry): as the sequence (P62937 whole entry) above
Procedure, shortened: as §2

KRAS G12V = KRAS G12V (Homo sapiens, UniProt P01116+P62937, G12V); experiment: as above; assay type: biochemical; conditions: KRAS G12V; read-out: KRAS G12V FRET data IC50
Sequence of KRAS G12V (P01116 1-169 isoform P01116-2 G12V limits assumed): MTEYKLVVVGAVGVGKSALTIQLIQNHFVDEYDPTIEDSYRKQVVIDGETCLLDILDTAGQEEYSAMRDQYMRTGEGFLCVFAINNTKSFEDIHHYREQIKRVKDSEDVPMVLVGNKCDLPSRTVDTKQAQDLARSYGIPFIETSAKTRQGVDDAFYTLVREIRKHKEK
Sequence of KRAS G12V (P62937 whole entry): as the sequence (P62937 whole entry) above
Procedure, shortened: as §2

NCI-H358 (K-Ras G12C) = experiment: CellTiter-Glo cell viability assay, 5-day treatment; assay type: cell-based; conditions: Homo sapiens, NCI-H358, 120 h, 5-day treatment; read-out: H358 Cell Viability assay data (K-Ras G12C, IC50)
Procedure, shortened: (§3)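 Luminescence read-out after 5 days of compound exposure, with plates first brought to room temperature for roughly 30 minutes. Values are percent of averaged DMSO wells, fitted by four-parameter logistic regression.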

Capan-1 (K-Ras G12V) = experiment: as above; assay type: cell-based; conditions: Homo sapiens, CAPAN-1, 120 h, 5-day treatment; read-out: Capan-1 Cell Viability assay data (K-Ras G12V, IC50)
Procedure, shortened: as §3

Sequence of KRAS Q61H (P01116 1-169 isoform P01116-2 Q61H limits assumed): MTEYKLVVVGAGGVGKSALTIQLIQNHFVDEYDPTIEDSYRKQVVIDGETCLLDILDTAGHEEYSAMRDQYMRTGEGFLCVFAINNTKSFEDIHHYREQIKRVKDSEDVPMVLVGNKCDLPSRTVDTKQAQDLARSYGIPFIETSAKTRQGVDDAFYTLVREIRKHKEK
Sequence of KRAS Q61H (P62937 whole entry): as the sequence (P62937 whole entry) above

| Structure (SMILES) | IC50 (KRAS Q61H) | IC50 (NRAS WT) | IC50 (NRAS Q61R) | IC50 (NRAS Q61K) | IC50 (KRAS G13D) | IC50 (NRAS G12C) | IC50 (KRAS G12D) | IC50 (KRAS G12C) | IC50 (KRAS G12S) | IC50 (KRAS WT) | IC50 (KRAS G13C) | IC50 (KRAS G12V) | IC50 (NCI-H358 (K-Ras G12C)) | IC50 (Capan-1 (K-Ras G12V)) |
| --- | --- | --- | --- | --- | --- | --- | --- | --- | --- | --- | --- | --- | --- | --- |
| CCn1c(-c2cccnc2[C@H](C)OC)c2c3cc(ccc31)-c1csc(n1)C[C@H](NC(=O)[C@@H](OC(=O)N1CC(OC)C1)C(C)C)C(=O)N1CCC[C@H](N1)C(=O)OCC(C)(C)C2 [Example A354] | 100 to 1000 nM | 100 to 1000 nM | 100 to 1000 nM | 100 to 1000 nM | 1000 to 10000 nM | 100 to 1000 nM | 1000 to 10000 nM | 100 to 1000 nM | 100 to 1000 nM | 100 to 1000 nM | 100 to 1000 nM | 100 to 1000 nM | 100 to 1000 nM | 100 to 1000 nM |
| CCn1c(-c2cccnc2[C@H](C)OC)c2c3cc(ccc31)-c1csc(n1)C[C@H](NC(=O)[C@H]1CCO1)C(=O)N1CCC[C@H](N1)C(=O)OCC(C)(C)C2 [Example A360] | 100 to 1000 nM | 100 to 1000 nM | 1000 to 10000 nM | 100 to 1000 nM | 1000 to 10000 nM | 100 to 1000 nM | 1000 to 10000 nM | 100 to 1000 nM | 100 to 1000 nM | 100 to 1000 nM | 100 to 1000 nM | 100 to 1000 nM | 100 to 1000 nM | 100 to 1000 nM |
| CCn1c(-c2cccnc2[C@H](C)OC)c2c3cc(ccc31)-c1csc(n1)C[C@H](NC(=O)C1CCC1)C(=O)N1CCC[C@H](N1)C(=O)OCC(C)(C)C2 [Example A369] | 100 to 1000 nM | 100 to 1000 nM | 100 to 1000 nM | 100 to 1000 nM | 100 to 1000 nM | 100 to 1000 nM | 1000 to 10000 nM | 100 to 1000 nM | 100 to 1000 nM | 100 to 1000 nM | 100 to 1000 nM | 100 to 1000 nM | 100 to 1000 nM | 100 to 1000 nM |
| CCn1c(-c2cccnc2[C@H](C)OC)c2c3cc(ccc31)-c1csc(n1)C[C@H](NC(=O)[C@H](C(C)C)N1CCN(C)C1=O)C(=O)N1CCC[C@H](N1)C(=O)OCC(C)(C)C2 [Example A389] | 100 to 1000 nM | 1000 to 10000 nM | 1000 to 10000 nM | 100 to 1000 nM | 1000 to 10000 nM | 100 to 1000 nM | 1000 to 10000 nM | 100 to 1000 nM | 1000 to 10000 nM | 1000 to 10000 nM | 1000 to 10000 nM | 1000 to 10000 nM | 10 to 100 nM | 10 to 100 nM |
| CCn1c(-c2cccnc2[C@H](C)OC)c2c3cc(ccc31)-c1cc(O)cc(c1)C[C@H](NC(=O)[C@H](C(C)C)N(C)C(=O)C1CCC(C3CCCO3)O1)C(=O)N1CCC[C@H](N1)C(=O)OCC(C)(C)C2 (stereo partly drawn) [Example A396] | 10 to 100 nM | 10 to 100 nM | 10 to 100 nM | 10 to 100 nM | 10 to 100 nM | 10 to 100 nM | 100 to 1000 nM | 10 to 100 nM | 10 to 100 nM | 10 to 100 nM | 10 to 100 nM | 10 to 100 nM | 100 to 1000 nM | 100 to 1000 nM |
| CCn1c(-c2cccnc2[C@H](C)OC)c2c3cc(ccc31)-c1csc(n1)C[C@H](NC(=O)[C@H](C(C)C)N(C)C(=O)N1CCC(C(=O)C(F)(F)F)CC1)C(=O)N1CCC[C@H](N1)C(=O)OCC(C)(C)C2 [Example A422] | 10 to 100 nM | 10 to 100 nM | 10 to 100 nM | 10 to 100 nM | 100 to 1000 nM | 10 to 100 nM | 100 to 1000 nM | 10 to 100 nM | 10 to 100 nM | 10 to 100 nM | 10 to 100 nM | 10 to 100 nM | 10 to 100 nM | 100 to 1000 nM |
